This note sets out measurements from PubChem BioAssay (NCI).

“And” between values parts separate entries of the source, which are not always exact repeats. Equal values may be shown once.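 Five concentrations, 48 hours, 96-well plates. GI50 = concentration required for 50% inhibition of growth. At the TGI there is no net growth.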 Where only a bound is given, the exact number is not on record here.

Experiment in all cases: NCI tumour cell line growth inhibition, 48 h
For assay [1], the system named is CCRF-CEM leukemia.
The test system of assay [2] is IGROV1 ovarian.
For assay [3], the system named is MDA-MB-435.
In assay [4] the test system is NCI/ADR-RES ovarian.
The test system of assay [5] is OVCAR-8 ovarian.
The test system of assay [6] is RPMI-8226 leukemia.
Assay [7] has as its system RXF 393 renal.
The test system of assay [8] is SNB-19 CNS.
Assay [9] deals with UACC-62 melanoma.
The test system of assay [10] is SF-539 CNS.

Consider `COc1ccc(-c2c(-c3cc(OC)c(OC)c(OC)c3)noc2N)cc1`, for which the GI50 in assay [1] is 30.7 nM; in assay [2], 20.2 nM; in assay [3] it was under 10 nM; in assay [4], under 10 nM; in assay [5], 0.0173 µM; in [6] it was 47.4 nM. Also, the GI50 in assay [7] is under 0.01 µM; in assay [8], 0.0342 µM; in assay [9] it was under 10 nM. Also, the TGI in [1] is over 100 µM; in [2], 40.1 µM; in [4], 0.0226 µM; in assay [5], 15.8 µM; in [6], 5.96 µM; in [7], 19.8 µM. Further, the TGI in [8] was over 100 µM; in assay [9], over 65.2 µM.

For the molecule `C=C(C)[C@@H]1CC[C@]2(CO)CC[C@]3(C)[C@H](CC[C@@H]4[C@@]5(C)CCC(NCCc6ccc(O)cc6)C(C)(C)[C@@H]5CC[C@]43C)[C@@H]12` (stereo partly specified), the GI50 in [1] was 1670 nM; in [3], 1430 nM; in assay [4], 1630 nM; in assay [10] it was 1.63 µM; in [9], 1630 nM. Moreover, the TGI in [1] was 4.14 µM; in assay [3] it was 2.77 µM; in assay [4] it was 3.45 µM; in [10] it was 3.04 µM; in [9], 3.09 µM.

Turning to `O=C(NCc1ccco1)c1ccc(NC2=C(Cl)C(=O)N(Cc3ccccc3)C2=O)cc1`, the GI50 in [2] was 2120 nM; in [3] it was 16300 nM; in [4], 18300 nM; in assay [5] it was 42.5 µM; in [6], 8520 nM; in assay [7], 40.1 µM. In addition, the GI50 was 22.2 µM in [10], 21.3 µM in [8] and 16700 nM in [9]. The TGI in [2] was 35.2 µM; in [3] it was 37.6 µM; in [4], 39.5 µM; in [5], over 100 µM; in [6] it was 23.6 µM; in [7], over 100 µM. The TGI came to 41 µM in assay [10], 45.6 µM in assay [8] and 36.7 µM in assay [9].

`COc1cc(OC)c(NC(=O)c2cc3ccccc3cc2O)cc1Cl`: the GI50 in [2] is 2030 nM; in assay [3], 2840 nM; in [4], 2630 nM; in assay [5], 2.88 µM; in [6] it was 2820 nM; in assay [7], 3.82 µM. For the same molecule, the GI50 was 3.04 µM in assay [10], 4.82 µM in assay [8] and 2870 nM in assay [9]. The TGI in assay [2] was 11.2 µM; in assay [3] it was 9.69 µM; in assay [4] it was 9.33 µM; in [5] it was 8.45 µM; in assay [6], 10.9 µM; in assay [7] it was 8.51 µM. Also, the TGI in [10] was 12.9 µM; in assay [8], over 100 µM; in assay [9] it was 14.1 µM.

For `COc1ccc(CNc2nc3cc(N)cc(N)c3nc2-c2ccccc2)cc1`, the GI50 in assay [1] was 3360 nM; in [2] it was 12900 nM; in assay [3], 10100 nM; in assay [4] it was 22700 nM; in assay [5], 14.8 µM; in [7] it was 5.32 µM. In addition, the results for the GI50 in [8] and in assay [9] were 41.5 µM and 14900 nM, respectively. In addition, the TGI in assay [1] worked out at 65.3 µM; in assay [2], 27.1 µM; in assay [3] it was 21.7 µM; in assay [4], 83.3 µM; in [5], 39.5 µM; in [6] it was 15.9 µM. The TGI in assay [7] was 18.4 µM; in assay [8] it was over 100 µM; in assay [9], 29.8 µM.

For the molecule `S=C(N/N=C(/c1ccccc1)c1ccccn1)N1CCCCCC1`, the GI50 is under 1 nM in assay [1]; under 1 nM in assay [2]; 43 nM in assay [3]; under 1 nM in [4]; 0.00375 µM in [5]; 0.329 µM in [10]. The figures for the GI50 in assay [8] and in assay [9] were 0.274 µM and 390 nM, respectively. Moreover, the TGI in assay [2] was 1.06 µM and 1.98 µM; in assay [3], 1.59 µM and 1.58 µM; in assay [4] it was 1.28 µM and 2.54 µM; in assay [5], 1.65 µM and 1.33 µM; in [7] it was 1.63 µM and 2.32 µM; in assay [10] it was 1.43 µM and 1.63 µM. The TGI in [8] is 2.27 µM and 2.06 µM; in assay [9], 3.73 µM and 0.78 µM.

As to `CN(C)CCCNC(=O)c1cncnc1Nc1ccc(OCc2cccc(F)c2)c(Cl)c1`, the GI50 was 1820 nM in assay [1]; 1780 nM in [2]; 1800 nM in assay [3]; 1890 nM in assay [4]; 1.51 µM in assay [7]; 1.77 µM in [10]. For the same molecule, the GI50 is 1.72 µM in assay [8] and 1820 nM in [9]. The TGI stood at 3.94 µM in [1]; 3.33 µM in assay [2]; 3.33 µM in assay [3]; 3.77 µM in [4]; 2.87 µM in [7]; 3.15 µM in assay [10]. In addition, the TGI in assay [8] is 3.11 µM; in assay [9] it was 3.22 µM.

Consider `CCCCCCCCCCCCOC1C(C(CC(=O)N2CCN(c3cccc(C(F)(F)F)c3)CC2)NS(=O)(=O)c2cc(Cl)cc(Cl)c2)OC2OC(C)(C)OC21` (stereo unspecified), for which the GI50 in [2] was over 100000 nM; in assay [3], over 100000 nM; in [4] it was over 100000 nM; in [5], over 100 µM; in assay [6], over 100000 nM; in assay [7], over 100 µM. Also, the GI50 is over 100 µM in assay [10], over 100 µM in assay [8] and over 100000 nM in assay [9]. The TGI in assay [2], in assay [3], in assay [4], in assay [5], in [6] and in assay [7] was over 100 µM each time. Also, the TGI in [10], in assay [8] and in [9] was over 100 µM in each case.

Turning to `C=C(CN1CCN(c2cccc(C(F)(F)F)n2)CC1)c1ccc(C(=S)Nc2ccccc2N)cc1`, the GI50 in assay [2] was 6930 nM; in [3], 3770 nM; in assay [4], 3120 nM; in assay [5], 5.33 µM; in [7], 3.74 µM; in assay [10], 5.72 µM. The figures for the GI50 in assay [8] and in assay [9] were 4.12 µM and 2280 nM, respectively. The TGI in assay [2], in assay [3], in [4], in assay [5], in [7] and in assay [10] was over 100 µM each time. Also, the values for the TGI in assay [8] and in [9] were over 100 µM and 6.89 µM, respectively.
